Source: US9573972B2, “Nurotoxic sterol glycosides” (priority 2008, dated 2017)
Entries after “also recorded” stand apart in the source; their conditions may differ.

Legend:
[1] = tested on: Phosphorylated tau aggregates; assay: Tau immunohistochemistry; type: in vivo, mouse; design: key to Phosphorylated tau aggregates: − = not present; + = present; conditions: for Phosphorylated tau aggregates: SG-fed
Protocol: Slide-mounted lumbar and thoracic spinal cord and brain sections were first rinsed for 45 minutes in 3 changes of PBS then quenched in 3% H2O2 in PBST (PBS+0.5% Triton X-100) for 10 minutes. The slides were rinsed for 4 minutes in 2 changes of PBST. The MOM mouse Ig blocking reagent was prepared as per the manufacturer's instructions. Two drops of mouse Ig stock solution was added to 2.5 mL of PBS. The sections were incubated with this solution for 1 hour at RT. Following this step, sections were rinsed for 4 minutes in 2 changes of PBST and incubated (5 minutes) with the MOM diluent solution prepared by adding 600 V1 of MOM protein concentrate to 7.5 mL of PBS. The diluent was tipped off the slides and replaced by a solution comprised of primary phospho-Tau antibody diluted at 1:100 in the diluent solution prepared in the same manner as discussed above. The sections were incubated for 60 minutes at RT. Subsequently, sections were rinsed for 4 minutes in 2 changes of PBST and incubated for 10 minutes in the MOM biotinylated anti-mouse IgG reagent (10 V1 of MOM biotinylated anti-mouse IgG diluted in 2.5 mL of the MOM diluents). The sections were then rinsed in PBST and incubated (1 hour at RT) with the secondary antibody prepared by combining one drop of secondary antibody (biotinylated goat-anti-rabbit IgG) from the Vectastain ABC Elite kit (Vector Laboratories, Burlingame, Calif., USA) was combined with 3 drops of serum stock to 10 mL of PBST. At 30 minutes after start of slide incubation with the secondary antibody, an immunoperoxidase solution was prepared by adding 2 drops of reagent A and 2 drops of reagent B (Vectastain Elite ABC kit, Vector Laboratories, Burlingame, Calif., USA) to 2.5 mL of PBST. After one hour incubation of the slides with the secondary antibody solution, the slides were rinsed for 4 minutes in two changes of PBST and incubated for 30 minutes in the working immunoperoxidase solution. Next, the sections were rinsed for 4 minutes in 2 changes of PBST. During the rinses, the DAB liquid substrate was prepared for the next step. As per manufacturer's instructions, 2 drops of buffer stock solution, 5 mL of ddH2O, 4 drops of DAB stock solution, and 2 drops of hydrogen peroxide solution were combined. The slides were incubated for 3 minutes at RT with this DAB solution and monitored for color development. The sections were rinsed for 5 minutes in ddH2O to stop the reaction and rid slides of DAB substrate. A methyl green nuclear counterstain was used to elucidate nuclei and motor neuron somata. The 0.5% methyl green counterstain was prepared in the following manner: First, the sodium acetate buffer was prepared with 1.36 g of sodium acetate trihydrate to 100 mL of distilled water adjusted to pH 4.2 using glacial acetic acid. For every 100 mL of buffer, 0.5 g of methyl green (ethyl violet, Sigma-Aldrich, Oakville, ON, Canada) was added to make a 0.5% methyl green solution. Slide-mounted sections were stained in the above methyl green solution for 5 minutes at RT. Sections were rinsed in distilled water, until the water became clear. […]
The numbers of immunoreactive somata or inclusions were counted across the ventral horn of the spinal cord, across brain hemispheres, or per dorsal or ventral root with the 40× objective lens in a 600 μm/600 μm area within region perimeters defined by a mouse brain atlas (2001). […]

male CD-1 mice = assay: Rotarod test, SG-fed mice; type: in vivo, mouse; conditions: SG-fed vs control, duration of study
Source text: Five-month old male CD-1 mice (30.1-35.7 g, 7.5 cm-8.8 cm) were purchased from Charles River (Wilmington, Mass.). Adult mice were chosen to mimic the mean age of onset of ALS-PDC (Kurland, L. T. (1988a) Trends Neurosci. 11, 51-4; Kurland, L. T., et al. (1994) Amyotrophic lateral sclerosis-parkinsonism-dementia complex on Guam: epidemiologic and etiological perspectives. 109-131). Thirty mice for the SG study were randomly divided into 2 groups (14 control and 16 experimental animals). All animals were housed singly in a virus-free barrier facility in a room maintained at 22° C. under a 12 hour light/dark cycle. The mice were provided ad libitum access to food and water.
The synthetic SG was mixed with finely ground Purina Chow mouse pellets (Mouse Diet™, Purina) to create the experimental pellets with a SG content of 1000 μg per pellet. Dry materials were blended with a sterile silicon spatula. For every 5 g of standard feed, 2.5 mL of doubly-distilled water (dd)H2O was added and the dough was kneaded and round up into pellets. A single sterol glucoside containing pellet was placed in the feeding tray each morning before the addition of regular mouse chow (ad libitum). All experimental pellets were entirely consumed by the mice each day. […] SG feeding was conducted daily for 15 weeks and mice were behaviorally monitored until sacrifice at 35 weeks (time point 1) or 52 weeks (time point 2). […]

CC[C@H](/C=C/[C@@H](C)[C@H]1CC[C@H]2[C@@H]3CC=C4C[C@@H](O[C@@H]5O[C@H](CO)[C@@H](O)[C@H](O)[C@H]5O)CC[C@]4(C)[C@H]3CC[C@]12C)C(C)C [SG, Stigmasterol β-D-Glucopyranoside]
Apoptosis of phosphorylated-tau containing cells ([1]; SG-fed animals at 52 weeks): majority of the phosphorylated-tau containing cells were actively undergoing apoptosis
Phosphorylated tau aggregates ([1]; Time-point 1 (35 wk)): −
Phosphorylated tau aggregates ([1]; Time-point 2 (52 wk)): +
Phosphorylated tau aggregates, incidence in SG-fed group ([1]; Time-point 2 (52 wk)): 2/8
Accumulation of phosphorylated tau ([1]; ventral horn of lumbar spinal cord, SG-fed mice, none in non-treated mice): induced accumulation of phosphorylated tau; also recorded: Phosphorylated Tau aggregates were observed
Rotarod performance (time without fall) (male CD-1 mice): decrease in the time without fall; also recorded: trend of diminished performance
